Reference: paper PMC10571995, “Near-Infrared Imaging of Colonic Adenomas In Vivo Using Orthotopic Human Organoids for Early Cancer Detection” (Cancers, 2023)
Residues, ends and D or L forms follow the SMILES beside them. *: point of attachment. X2 = CC1(C)C(/C=C/C2=C(Oc3ccc(S(=O)(=O)O)cc3)C(=C/C=C3/N(CCCCCC(=O)NCCN4C(=O)CC(*)C4=O)c4ccc(S(=O)(=O)O)cc4C3(C)C)/CCC2)=[N+](CCCCS(=O)(=O)[O-])c2ccc(S(=O)(=O)O)cc21; X1 = CC1(C)C(=CC=C2CCCC(C=CC3=[N+](CCCCS(=O)(=O)[O-])c4ccc(S(=O)(=O)O)cc4C3(C)C)=C2Oc2ccc(S(=O)(=O)O)cc2)N(CCCCCC(=O)NCCN2C(=O)CC(*)C2=O)c2ccc(S(=O)(=O)O)cc21

Assays:
[1] = biological target: T1, cMet (Homo sapiens, UniProt P08581); test: Peptide biodistribution, ex vivo NIR fluorescence of resected organs and colonoids (Pearl Trilogy); assay type: in vivo; settings: NSG mice, 200 μM, 200 μL i.v., 1 hour post-injection, ex vivo λex 785 / λem 820 nm, mean ± SD
T1 construct: Human colonoids provide clinically relevant levels of target expression; endogenous in cells; host or cells: Patient-derived human colonoids (cMet-high adenoma, cMet-low adenoma, normal), either cultured or implanted orthotopically in NSG mouse colon
T1 sequence (P08581 25-1390): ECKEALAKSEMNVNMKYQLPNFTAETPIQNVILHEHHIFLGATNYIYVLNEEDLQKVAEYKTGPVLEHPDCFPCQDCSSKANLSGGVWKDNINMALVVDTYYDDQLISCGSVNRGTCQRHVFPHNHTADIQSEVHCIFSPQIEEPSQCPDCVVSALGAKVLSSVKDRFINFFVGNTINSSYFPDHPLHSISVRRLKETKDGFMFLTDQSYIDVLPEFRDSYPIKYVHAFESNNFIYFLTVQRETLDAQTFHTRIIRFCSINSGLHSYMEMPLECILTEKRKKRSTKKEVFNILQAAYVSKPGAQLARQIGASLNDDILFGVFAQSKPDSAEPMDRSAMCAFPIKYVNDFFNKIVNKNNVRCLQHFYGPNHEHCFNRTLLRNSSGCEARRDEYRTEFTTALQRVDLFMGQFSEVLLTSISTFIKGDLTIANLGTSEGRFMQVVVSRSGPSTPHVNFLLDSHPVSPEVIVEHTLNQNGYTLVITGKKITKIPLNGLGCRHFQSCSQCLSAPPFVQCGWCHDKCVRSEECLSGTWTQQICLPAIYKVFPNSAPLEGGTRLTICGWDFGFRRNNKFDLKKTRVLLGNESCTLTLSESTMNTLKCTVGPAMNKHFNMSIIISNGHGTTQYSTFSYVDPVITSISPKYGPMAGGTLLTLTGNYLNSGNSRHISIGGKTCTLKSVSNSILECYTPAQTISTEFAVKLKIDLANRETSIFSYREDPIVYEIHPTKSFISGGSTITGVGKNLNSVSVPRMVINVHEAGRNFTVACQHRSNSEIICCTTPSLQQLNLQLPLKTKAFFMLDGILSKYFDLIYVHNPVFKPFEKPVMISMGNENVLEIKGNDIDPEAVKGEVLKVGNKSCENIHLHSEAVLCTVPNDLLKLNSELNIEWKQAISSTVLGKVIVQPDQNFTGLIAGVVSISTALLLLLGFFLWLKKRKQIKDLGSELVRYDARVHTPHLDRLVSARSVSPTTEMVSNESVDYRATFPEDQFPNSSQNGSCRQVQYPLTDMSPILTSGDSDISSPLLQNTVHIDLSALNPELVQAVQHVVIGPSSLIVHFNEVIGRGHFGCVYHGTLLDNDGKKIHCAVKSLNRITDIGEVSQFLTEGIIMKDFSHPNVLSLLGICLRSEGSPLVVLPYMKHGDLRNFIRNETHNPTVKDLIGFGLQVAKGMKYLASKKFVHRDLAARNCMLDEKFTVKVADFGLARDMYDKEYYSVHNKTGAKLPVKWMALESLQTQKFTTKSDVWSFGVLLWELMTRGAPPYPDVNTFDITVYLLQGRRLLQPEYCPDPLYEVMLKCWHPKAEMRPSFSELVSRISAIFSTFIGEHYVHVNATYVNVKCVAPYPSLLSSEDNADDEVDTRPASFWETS
Protocol: Peptides (200 μM, 200 μL) were injected intravenously in NSG mice ~3 weeks after orthotopic implantation of the patient-derived colonoids. The mice were euthanized at 1 h post-injection. Major organs were resected and imaged using the Pearl Trilogy (LI-COR Biosciences) with excitation at λex = 785 nm and emission at λem = 820 nm to measure the peptide biodistribution. Fluorescence intensities were quantified from each whole tumor or organ using Image Studio 5.5.4 software (LI-COR Biosciences).

[2] = biological target: T1, cMet; test: Ex vivo immunofluorescence of excised NSG mouse colon with implanted colonoids, human-to-mouse (h/m) ratio; assay type: binding; settings: excised NSG colon sections, peptide 5 μM 10 min RT, antibody 1:100, mean ± SD, n = 6 colonoids
Protocol: Tissue sections were deparaffinized, and antigen retrieval was performed as described previously. Sections were blocked with goat serum for 30 min at RT followed by overnight incubation with 1:100 dilution of monoclonal anti-cMet antibody (Abcam; #EP1454Y) and undiluted human-specific anti-cytokeratin (CAM 5.2, BD Biosciences, Franklin Lakes, NJ, USA; #345779) at 4 °C. Thereafter, 1:500 AF488-labeled goat anti-rabbit secondary antibody (Life Technologies; #A-11029) and 1:500 AF568-labeled goat anti-mouse secondary antibody (Abcam, #ab175473) were administered. After washing with PBST, the slides were stained with the IRDye800-labeled peptides at a concentration of 5 μM for 10 min at RT. The tissue sections were then washed with PBST and mounted using a Prolong Gold reagent containing DAPI (Invitrogen; #P36931). NIR fluorescence images were collected using an inverted confocal microscope (Leica; Stellaris 5). The fluorescence intensities were quantified using custom MATLAB R2022a, and regions of saturated intensities were avoided.

[3] = Serum stability by analytical RP-HPLC; assay type: in vitro ADME; settings: CPC;Apc mouse serum 194 μL, 30 μM peptide, 37 °C, 0, 0.5, 1, 2, 4, 8, 24 h, acetonitrile precipitation, RP-HPLC area under the peak, R^2 = 0.99; read-out: Half-life T1/2 in mouse serum (converted)
Protocol: Peptide stability was evaluated by incubating 6 μL of 1 mM peptide in PBS at 37 °C, resulting in a final concentration of 30 μM in 194 μL of serum obtained from a CPC;Apc mouse. Samples were precipitated by adding a double volume of acetonitrile and centrifuging for 10 min at 4 °C. RP-HPLC was performed at 0, 0.5, 1, 2, 4, 8, and 24 h. The relative peptide concentrations were determined by measuring the area under the peak (Waters, Breeze 2). The coefficient of determination R^2 was determined using Graphpad Prism 8 software (GraphPad Software, Boston, MA, USA).

[4] = biological target: T1, cMet; test: In vivo NIR fluorescence endoscopy of patient-derived colonoids implanted orthotopically in NSG mouse colon; settings: NSG mice, 1 h post-injection, n = 6 mice
Protocol: Colonoids were harvested and treated, as described previously. Colonoids were resuspended in engraftment medium: DPBS, 5% Matrigel, 10 µM Y27632. Prior to colonoid implantation, 7–12-week-old NSG (NOD.Cg-Prkdc^scidIl2rg^tm1Wjl/SzJ, Jackson laboratory, #005557) mice were treated with 2.5% dextran sulfate sodium (DSS) for 5 days and supplied with regular water for another day. Anesthesia was induced and maintained via a nose cone with inhaled isoflurane mixed with oxygen at concentrations of 2–4% at a flow rate of 0.5 L/min. A total of ~2.5–5 × 10^5 cell aggregates in 200 μL were injected intrarectally. The rectum was closed immediately using tissue adhesive (Santa Cruz Biotechnology, Dallas, TX, USA; #SC361931) to promote retention of the implanted colonoids. Colonoid growth was monitored weekly by small animal endoscopy with white light illumination. Imaging was performed after the implanted adenomas were clearly visible.
Mice were fasted for 4–6 h prior to in vivo imaging. Anesthesia was induced and maintained using inhaled isoflurane mixed with oxygen at concentrations of 2–4% and a flow rate of 0.5 L/min via a nose cone. The peptides were injected intravenously using a concentration of 200 μM diluted in 200 μL of PBS. A rigid small animal endoscope (Karl Storz Veterinary Endoscopy, Goleta, CA, USA) was modified to deliver NIR excitation at λex = 785 nm. This instrument was inserted into the mouse rectum at 1 h post-injection to collect in vivo fluorescence images. After 3 days to allow for target peptide clearance, the scrambled (control) peptide was administered systemically and imaged similarly. A total of n = 3 independent regions of interest (ROI) with dimensions of 20 × 20 μm^2 were identified randomly from the implanted area (target) and from adjacent normal colonic mucosa (background). The mean fluorescence intensities were used to calculate target-to-background (T/B) ratios.

[5] = Peptide safety: necropsy histology (H&E), blood hematology and chemistry; assay type: in vivo, mouse; settings: CPC;Apc mice, 200 μM, 200 μL i.v., 48 h post-injection
Protocol: CPC;Apc mice were euthanized at 48 hours post-injection with QQT* -IRDye800 (200 μM, 200 μL). Vital organs were excised, sectioned, and evaluated by routine histology (H&E) to evaluate for signs of acute toxicity. Whole blood was collected retro-orbitally using a capillary tube and submitted for evaluation of hematology and chemistry.

[6] = system: colonic adenomas; test: In vivo NIR fluorescence endoscopy of spontaneous colonic adenomas in CPC;Apc mice (pharmacokinetics, T/B ratio); set-up: species or system mouse
Protocol: CPC;Apc mice have been genetically engineered to sporadically delete an APC gene regulated by a Cre promoter (CDX2P-9.5NLS-Cre) to spontaneously form either flat or polypoid adenomas in the distal colon.
The IRDye800-labeled target peptide (200 μM, 200 μL) was injected intravenously in Cpc;Apc mice, and fluorescence images were collected at 0, 0.5, 1, 2, 4, 6, 10, 24, 48 h post-injection using the small animal endoscope. The IRDye800-labeled scrambled (control) peptide was administered and imaged the same way 3 days after. The adjacent nontumor tissue region with an equal area of the tumor region was used for background. The time point with the highest target-to-background (T/B) ratio was selected as peak uptake.

[7] = 200 μM in 200 μL i.v., mean ± SD
[8] = 200 μM, 200 μL i.v., images at 0-48 h
[9] = spontaneous adenomas, 1 hour after i.v. administration, mean ± SD

CC(C)C[C@H](NC(=O)[C@H](CO)NC(=O)[C@H](Cc1c[nH]c2ccccc12)NC(=O)[C@H](CC(N)=O)NC(=O)[C@@H](NC(=O)[C@H](CCC(N)=O)NC(=O)[C@@H](N)CCC(N)=O)[C@@H](C)O)C(=O)NCC(=O)NCC(=O)NCC(=O)N[C@@H](CO)C(=O)N[C@@H](CSC1CC(=O)N(CCNC(=O)CCCCCN2C(=CC=C3CCCC(C=CC4=[N+](CCCCS(=O)(=O)[O-])c5ccc(S(=O)(=O)O)cc5C4(C)C)=C3Oc3ccc(S(=O)(=O)O)cc3)C(C)(C)c3cc(S(=O)(=O)O)ccc32)C1=O)C(N)=O (stereo partly drawn) [QQT*-IRDye800] (H-QQTNWSLGGGSC(X1)-NH2; N-terminus and C-terminus assumed)
Uptake (quantified fluorescence) by cMet^high adenoma colonoid [1]: 1.24±0.16 | Uptake (quantified fluorescence) by cMet^low adenoma colonoid [1]: 0.23±0.08 | Uptake (quantified fluorescence) by normal human colonoid [1]: 0.18±0.04 | Fluorescence intensity human-to-mouse (h/m) ratio, cMet^high adenoma colonoid [2]: 7.68 ± 1.23 | Fluorescence intensity human-to-mouse (h/m) ratio, cMet^low adenoma [2]: 0.87 ± 0.31 | Fluorescence intensity human-to-mouse (h/m) ratio, normal colonoid [2]: 1.19 ± 0.39 | half-life at 30 μM [3]: 3.6 h | Quantified fluorescence intensity (T/B ratio) in vivo, cMet^high adenoma ([4]; 200 μM in 200 μL i.v., endoscope λex 785 nm, mean ± SD): 2.35 ± 0.35 | Quantified fluorescence intensity (T/B ratio) in vivo, cMet^low adenoma [4, 7]: 1.19 ± 0.12 | Quantified fluorescence intensity (T/B ratio) in vivo, normal colonoid [4, 7]: 1.22 ± 0.18 | Fold increase QQT*-IRDye800 versus TLQ*-IRDye800, cMet^high adenoma [4]: 1.8 fold | Acute toxicity in animal necropsy, histology (H&E) of vital organs [5]: No signs of acute toxicity | Whole blood hematology and chemistry ([5]; n = 6 mice): No significant abnormalities | Peak T/B ratio (peak uptake by the adenoma) ([6]; 200 μM, 200 μL i.v., at 1 h post-injection, mean ± SD, n = 6 mice): 2.2 ± 0.4 | Time of peak uptake (peak T/B ratio) post-injection [6, 8]: 1 h | Time to clearance of signal (return to baseline) [6, 8]: ~ 24 h | T/B ratio, flat lesions [6, 9]: 2.17±0.30 | T/B ratio, grossly visible adenomas [6, 9]: 1.91±0.28 | T/B ratio, small adenomas [6, 9]: 2.23±0.43

CC(C)C[C@H](NC(=O)[C@@H](N)[C@@H](C)O)C(=O)N[C@@H](CCC(N)=O)C(=O)N[C@@H](Cc1c[nH]c2ccccc12)C(=O)N[C@@H](CC(N)=O)C(=O)N[C@@H](CCC(N)=O)C(=O)N[C@@H](CO)C(=O)NCC(=O)NCC(=O)NCC(=O)N[C@@H](CO)C(=O)N[C@@H](CSC1CC(=O)N(CCNC(=O)CCCCCN2/C(=C/C=C3\CCCC(/C=C/C4=[N+](CCCCS(=O)(=O)[O-])c5ccc(S(=O)(=O)O)cc5C4(C)C)=C3Oc3ccc(S(=O)(=O)O)cc3)C(C)(C)c3cc(S(=O)(=O)O)ccc32)C1=O)C(N)=O (stereo partly drawn) [TLQ*-IRDye800, reference compound] (H-TLQWNQSGGGSC(X2)-NH2)
Uptake (quantified fluorescence) by cMet^high adenoma colonoid [1]: 0.29±0.098 | Uptake (quantified fluorescence) by cMet^low adenoma colonoid [1]: 0.25±0.06
